Tested on: TAXOL SENSITIVE HUMAN COLON ADENOCARCINOMA #15/0
Assay: Early stage taxol sensitive human colon adenocarcinoma #15/0 xenograft (Table V)
Type: in vivo
Conditions: total dose 420 mg/kg: 140 mg/kg/injection IV on days 3, 5, and 7; Balb/C SCID female mice
Excerpt: Conventional Murine Tumor and Human Tumor Xenouraft Assays
Inhibition of tumors transplanted into mice is an accepted procedure for studying the efficacy of antitumor agents (Corbett, et al., In vivo Methods for Screening and Preclinical Testing; Use of rodent solid tumors for drug discovery., In: Anticancer Drug Development Guide: Preclinical Screening, Clinical Trials, and Approval, B. Teicher (ed), Humana Press Inc., Totowa, N.J., Chapter 5, pages 75–99 (1997); (Corbett, et al., Int., J. Parmacog., 33, Supplement, 102–122 (1995)). Murine tumors or human xenographs were implanted essentially as described by Corbett in In vivo Methods for Screening and Preclimical Testing; Use of rodent solid tumors for drug discovery. Briefly, the murine tumor or human xenograph was implanted subcutaneously using either 12-gauge trocar implants or counted number of cells. The location for the trocar insertion is midway between the axillary and inguinal region along the side of the mouse. The trocar is slipped approximately ¾ of an inch subcutaneously up toward the axilla before discharging the tumor fragment, and pinching the skin as the trocar is removed., Alternatively, human tumor cells prepared from a […] of donor tumors (5×10^6 cells) were implanted subcutaneously in a hind-leg of a male or female nude mouse (Charles River). Either a test compound in vehicle or vehicle alone was administered by intravenous bolus injection (iv), intraperitoneal injection (ip), or oral gavage (po). Each treatment group, as well as a group of untreated control animals, consisted of five animals per group in each experiment. Subcutaneous tumor response was monitored by tumor volume measurement performed twice each week over the course of the experiment (60–120 days). Body weights were taken as a general measure of toxicity. The subcutaneous tumor data were analyzed by determining the median tumor weight for each treatment group over the course of the experiment and calculating the tumor growth delay as the difference in days for the treatment versus the control tumors to reach a volume of either 500 or 1000 mm^3.
The compound of Example 110 was tested against a variety of murine and human tumors substantially as described supra. The parameters measured in each experiment are summarized in the following paragraphs. • Tumor Weight(mg)=(a×b^2)/2 where a=tumor length (mm) and b=tumor width (mm). • Tumor Growth Delay=T−C where T is the median time (days) required for the treatment group tumors to reach a predetermined size, and C is the median time (days) for the control group tumors to reach the same size. Tumor-free survivors are excluded from this calculation, and are tabulated separately (Tumor Free).
[formula] • where Tumor Growth Delay is as previously defined and Td is tumor volume doubling time (days), estimated from the best fit straight line from a log-linear growth plot of the control group of tumors in exponential growth (100–800 mg range) • % T/C mass—The treatment and control groups are measured when the control group tumors reach approximately 700 to 1200 mg in size (median group). The median tumor weight of each group is determined (including zeros). The T/C value in percent is an indication of antitumor effectiveness. A T/C≦42% is considered significant antitumor activity. A T/C<10% is considered to indicate highly significant antitumor activity. • Body Weight Loss Nadir—A body weight loss nadir (mean of group) of greater than 20% or drug deaths greater than 20% are considered to indicate an excessively toxic dosage in single course trials. • Activity Rating—the Activity Rating is derived from the Log Kill according to the following table: […]

O=C(NS(=O)(=O)c1ccccc1)c1ccc(Cl)cc1Cl [Example 110, N-[2,4-dichlorobenzoyl]phenylsulfonamide]
% BODY WT LOSS AT NADIR: 0%
% T/C MASS: 0%
ACTIVITY RATING: ++++ (HIGHLY ACTIVE >2.8)
DRUG DEATHS: 0/5
GROWTH DELAY: 33.5 days
LOG KILL: 5.0
TUMOR FREE AT DAY 151: 1/5

From patent US7183320B2, “Benzoylsulfonamides and sulfonylbenzamidines for use as antitumour agents” (Eli Lilly and Company, priority 2002, dated 2007)
